Structures can show the parent of a compound that is named as a salt.
System: CK-1 male mice
Experiment: climbing mice assay (apomorphine-induced climbing), antipsychotic activity
Type: in vivo
Conditions: 30 minutes prior to apomorphine 1.5 mg/kg subcutaneously, climbing scores totaled over readings at 10, 20 and 30 minutes, control group set to 100%
Protocol: Antipsychotic activity is determined in the climbing mice assay by methods similar to those described by P. Protais, et al., Psychopharmacol., 50, 1 (1976) and B. Costall, Eur. J. Pharmacol., 50, 39 (1978).
The subject CK-1 male mice (23-27 grams) are group-housed under standard laboratory conditions. The mice are individually placed in wire mesh stick cages (4" x 4" by 10") and are allowed one hour for adaptation and exploration of the new environment. Then apomorphine is injected subcutaneously at 1.5 mg/kg, a dose causing climbing in all subjects for 30 minutes. Compounds to be tested for antipsychotic activity are injected intraperitoneally 30 minutes prior to the apomorphine challenge at a screening dose of 10mg/kg.
For evaluation of climbing, 3 readings are taken at 10,20 and 30 minutes after apomorphine administration according to the following scale:
Mice consistently climbing before the injection of apomorphine are discarded.
With full-developed apomporphine climbing, the animals are hanging onto the cage walls, rather motionless, over longer periods of time. By contrast, climbs due to mere motor stimulation usually last only a few seconds.
The climbing scores are individually totaled (maximum score: 6 per mouse over 3 readings) and the total score of the control group (vehicle intraperitoneally-apomorphine subcutaneously) is set to 100%. ED₅₀ value with 95% confidence limits, calculated by a linear regression analysis of some of the compounds of this invention.

Row | Compound | Antipsychotic Activity Score (Dose 20 mg/kg ip) [%] | Antipsychotic Activity Score (Dose 9.5 mg/kg ip) [%]
1 | CC1SC(C)(C)C(=O)N1CCCCN1CCC(c2cc3ccccc3s2)CC1 (stereo not drawn) [3-[4-[4-[Benzo[b]thien-2yl)-1-piperidinyl[butyl]-2,5,5-trimethyl-4-thiazolidinone hydrochloride] | 44 | 
2 | CC1(C)C(=O)N(CCCCN2CCC(c3csc4ccccc34)CC2)CS1(=O)=O [3-[4-[4-[Benzo[b]thien-3-yl)-1-piperidinyl]butyl]-5,5-dimethyl-1,1-dioxo-4-thiazolidinone] | 98 | 
3 | CC1SC(C)(C)C(=O)N1CCCCN1CCC(c2csc3ccccc23)CC1.O=C(O)/C=C\C(=O)O (stereo not drawn) [3-[4-[4-(Benzo[b]thien-3-yl)-1-piperidinyl]butyl]-2,5,5-trimethyl-4-thiazolidinone maleate] |  | 50
